The values that follow come from patent US9006274B2, “Thiazole derivatives for treating dyskinesias caused by a chemical treatment” (Ipsen Pharma S.A.S., priority 2005, dated 2015).

Molecules are shown by their SMILES.

For assay [1], the system named is dyskinesias induced by L-DOPA in rats. In words: Study of dyskinesias induced by L-DOPA (6-OHDA-lesioned dyskinetic rats), score of abnormal and involuntary movements. The format is in vivo, rat. Conditions: for effect on rats suffering from induced dyskinesia: oral 10 and 30 mg/kg, dose-dependent, statistically significant effectiveness. An excerpt: Principle of the In Vivo Test (Experimental Model with Dyskinetic Rats):
An animal model is produced where the dyskinesia is induced in animals treated with L-Dopa (3-(3,4-dihydroxyphenyl)-L-alanine). First of all in order to cause a reduction in the level of endogenous dopamine at the level of the striatum, lesions are produced in the rats using 6-hydroxydopamine (6-OHDA). Following this injection of 6-OHDA, these animals become sensitive to the side-effects of L-dopa. In fact in order to remedy this endogenous dopamine deficiency, the rats receive an L-Dopa based treatment. […] The dyskinesia thus induced is evaluated by a statistical behaviour test.
In fact the L-Dopa passes through the hematoencephalic barrier with difficulty and therefore it can be decarboxylated at the peripheral level.
The study was carried out on young male rats. The rats are anaesthetized (chloral 400 mg/kg). Then they receive 2 stereotaxic injections of 6 μg of 6-hydroxydopamine in the left striatum using a 10 μl Hamilton microsyringe. The rats receive in fine 12 μg of 6-OHDA dissolved in 4 μl of 0.02% L-ascorbate. Four weeks later the lesion to the locus niger is produced in the rats. In order to quantify this lesion, an indirect measurement is used: the rotations induced by apomorphine (substance test). The animals receive a sub-cutaneous injection of 0.5 mg/kg of apomorphine and the right and left rotations of the animals are measured over 30 minutes. A net rotational asymmetry score is then determined. This score is expressed as the number of complete turns in the test cage/minute in the contralateral direction of the lesion.
Six weeks after the 6-hydroxydopamine (6-OHDA) lesions, the selected rats receive a daily intraperitoneal injection of L-Dopa methylester at a dose of 20 mg/kg and benserazide at a dose of 15 mg/kg. The injections take place from week 6 to week 9. From week 10, the rats receive a more concentrated dose: each day they receive an intraperitoneal injection of L-Dopa methylester at a dose of 25 mg/kg and benserazide at a dose of 15 mg/kg. From week 11, the rats receive two daily injections of L-Dopa methylester at a dose of 15 mg/kg and benserazide at a dose of 15 mg/kg. During week 11, the rats are evaluated 3 times per week for their level of abnormal and involuntary movements in order to determine whether the administered doses are sufficient to cause a dyskinesia in these animals. The rats are observed individually from 30 minutes to 180 minutes after injection of the L-Dopa; they are observed every 30 minutes. The movements which are observed at that time are considered to be dyskinetic movements when they meet the following criteria: • the movements are induced by the L-Dopa; • the movements affect the side of the body in the contralateral direction of the lesion; • the movements are repetitive, involuntary and cannot be attributed to normal behaviour.
The abnormal and involuntary movements are classified in 4 sub-types: • locomotive dyskinesia: increase in locomotion of the side contralateral to the lesion; • axial dystonia: deviation of the posture of the neck and of the upper part of the body; • oromandibular dyskinesia: stereotypical movements of the jaws and protrusion of the tongue; • dyskinesia of the anterior limbs: repetitive and rhythmic jerking of the anterior limbs accompanied by a dystonic posture and/or strong grasping movements of the paws.
For each of these sub-types, the rats are marked on a scale of 0 to 4, knowing that: • 0=no movement, • 1=occasional movements, • 2=frequent movements, • 3=continuous movements but interrupted by a sensory distraction, • 4=continuous, acute movements, not interrupted by a sensory distraction.
The compounds according to the invention are tested in order to determine their ability to modulate the effects of the L-Dopa.

The subject of assay [2] is tardive orofacial dyskinesia caused by haloperidol in rats. Description: Study of tardive dyskinesia in rats treated with a neuroleptic (haloperidol) over a long period, count of tongue protrusions and mastication movements. It counts as in vivo, rat. To be noted: for effect on rats suffering from tardive dyskinesia and tardive orofacial dyskinesia caused by haloperidol: oral 10 and 30 mg/kg, dose-dependent effectiveness. An excerpt: Principle of the In Vivo Test (Experimental Model with Rats): […] dyskinesia is a complication resulting from prolonged treatment with for example neuroleptics. It is characterized by repetitive, involuntary movements of the mouth, face and tongue. Long-term treatment with neuroleptics can lead to oromandibular dyskinesia, in particular it can lead to movements of mastication and protrusion of the tongue in rats. The principle of the test is to quantify the abnormal movements of the animals in a test cage during a determined time window (5 minutes). A neuroleptic, haloperidol (originating from Sigma®), is administered over a long period to rats using an Alzet® osmotic pump. This osmotic pump (reference 2ML4 Alzet®) is filled with a solution of haloperidol at 10 mg/ml. This pump is implanted subcutaneously in rats weighing between 150 g and 160 g. After anaesthesia of the rats with isoflurane, a small incision is made in the skin at the level of the scapulae to allow insertion of the pump. Then the incision is sutured. The pump makes it possible to continuously administer haloperidol to the rats at a dose of 2 mg/kg/day for 28 days. […] Before the treatment (t=0) with the compounds to be tested, the rats are placed individually in plastic test cages. […] Results: The rate of protrusion of the tongue and mastication movements is calculated statistically for each group of rats. […] The results presented were obtained with 8 tested animals.

[3] abbreviates: 30 mg/kg orally, 120 minutes after the administration of L-Dopa, control (water) 12 (compound 1) and 12.9 (compound 2).
The mark [4] stands for this setting: 30 mg/kg orally, after 180 minutes of treatment, reduced from 11.3 (compound 1) and from 13.8 (compound 2).

Turning to `CC(C)(C)c1cc(-c2csc(CN)n2)cc(C(C)(C)C)c1O.Cl` [Compound 1, 4-[2-(aminomethyl)-1,3-thiazol-4-yl]-2,6-di(tert-butyl)phenol hydrochloride or dihydrochloride], the “score of abnormal and involuntary movements (dyskinesia score, maximum 16 points)” value is listed as 10 points in assay [1] (setting [3]) and 9.6 points in assay [1] (setting [4]). Besides, in assay [1], the “effect on rats suffering from induced dyskinesia” value is “anti-dyskinetic effect”. The “score of chewing movements” value in assay [2] (10 mg/kg orally, counted for 5 minutes, reduced from 30.3) is given as 21; in assay [2] (30 mg/kg orally, counted for 5 minutes, reduced from 35.6) it was 11.9. The “effect on rats suffering from tardive dyskinesia and tardive orofacial dyskinesia caused by haloperidol” value in assay [2] is on record as “anti-dyskinetic effect”.
`C[C@@H](N)c1nc(-c2cc(C(C)(C)C)c(O)c(C(C)(C)C)c2)cs1.Cl` [Compound 2, 4-{2-[(1R)-1-aminoethyl]-1,3-thiazol-4-yl}-2,6-di-tert-butylphenol hydrochloride]: the “score of abnormal and involuntary movements (dyskinesia score, maximum 16 points)” value in assay [1] (10 mg/kg orally, after 180 minutes of treatment, reduced from 13) is reported as 10.6 points; in assay [1] (setting [3]), 9.7 points; in assay [1] (setting [4]), 9 points. Also, in assay [1], the “effect on rats suffering from induced dyskinesia” value was “anti-dyskinetic effect”. The “rate of protrusion of the tongue” value is on record as 5 in assay [2] (10 mg/kg orally, after 3 hours, counted for 5 minutes, reduced from 11.4) and 6 in assay [2] (30 mg/kg orally, after 3 hours, counted for 5 minutes, reduced from 15). The “number of mastication movements” value in assay [2] (30 mg/kg orally, after 3 hours, counted for 5 minutes, reduced from 35.5) is 23.7. Further, in assay [2], the “effect on rats suffering from tardive dyskinesia and tardive orofacial dyskinesia caused by haloperidol” value was “anti-dyskinetic effect”.
